{"source": "patent US10004701B2", "about": "“Methods and compositions for treating infection” (UNIVERSITY OF ROCHESTER, priority 2012, dated 2018)", "assay_in_all_cases": "AK assay 384-well format, Prestwick library screening", "key": {"[1]": {"system": "E. faecium", "type": "cell-based, Enterococcus faecium", "conditions": "50 μM final drug concentration; for fold induction at 50 µM: Enterococcus faecium, 3 h"}, "[2]": {"system": "S. aureus strain USA300-0114", "type": "cell-based, Staphylococcus aureus", "conditions": "50 μM final drug concentration; for fold induction at 50 µM: Staphylococcus aureus, USA300, 3 h"}, "[3]": {"system": "K. pneumoniae", "type": "cell-based, Klebsiella pneumoniae", "conditions": "50 μM final drug concentration; for fold induction at 50 µM: Klebsiella pneumoniae, 3 h"}, "[4]": {"system": "A. baumannii strain 98-37-09", "type": "cell-based, Acinetobacter baumannii", "conditions": "50 μM final drug concentration; for fold induction at 50 µM: Acinetobacter baumannii, 983709, 3 h"}, "[5]": {"system": "P. aeruginosa", "type": "cell-based, Pseudomonas aeruginosa", "conditions": "50 μM final drug concentration; for fold induction at 50 µM: Pseudomonas aeruginosa, 3 h"}, "[6]": {"system": "E. cloacae", "type": "cell-based, Enterobacter cloacae", "conditions": "50 μM final drug concentration; for fold induction at 50 µM: Enterobacter cloacae, 3 h"}, "[7]": {"system": "E. coli", "type": "cell-based, Escherichia coli", "conditions": "50 μM final drug concentration; for fold induction at 50 µM: Escherichia coli, 3 h"}}, "note": "Counter-ions that a name gives are not always drawn. Like-named read-outs stand apart in the source and are kept apart here.", "data": [{"molecule": "CC1(C)O[C@@H]2C[C@H]3[C@@H]4CCC5=CC(=O)CC[C@]5(C)[C@@]4(F)[C@@H](O)C[C@]3(C)[C@]2(C(=O)CCl)O1", "note": "[Halcinonide]", "values": [{"measurement": "fold induction at 50 µM", "setting": "[1]; planktonic, cutoff for positive-scoring molecules 3-fold increase, read-out: AK-based Prestwick Library Screening Results, E. faecium (fold increase in extracellular AK activity)", "result": 0.9}, {"measurement": "fold induction at 50 µM", "setting": "[2]; planktonic, cutoff for positive-scoring molecules 3-fold increase, read-out: AK-based Prestwick Library Screening Results, S. aureus (fold increase in extracellular AK activity)", "result": 0.6}, {"measurement": "fold induction at 50 µM", "setting": "[3]; planktonic, cutoff for positive-scoring molecules 3-fold increase, read-out: AK-based Prestwick Library Screening Results, K. pneumoniae (fold increase in extracellular AK activity)", "result": 0.5}, {"measurement": "fold induction at 50 µM", "setting": "[4]; planktonic, cutoff for positive-scoring molecules 3-fold increase, read-out: AK-based Prestwick Library Screening Results, A. baumannii (fold increase in extracellular AK activity)", "result": 0.7}, {"measurement": "fold induction at 50 µM", "setting": "[5]; planktonic, cutoff for positive-scoring molecules 3-fold increase, read-out: AK-based Prestwick Library Screening Results, P. aeruginosa (fold increase in extracellular AK activity)", "result": 0.7}, {"measurement": "fold induction at 50 µM", "setting": "[6]; planktonic, cutoff for positive-scoring molecules 3-fold increase, read-out: AK-based Prestwick Library Screening Results, E. cloacae (fold increase in extracellular AK activity)", "result": 0.8}, {"measurement": "fold induction at 50 µM", "setting": "[7]; planktonic, cutoff for positive-scoring molecules 3-fold increase, read-out: AK-based Prestwick Library Screening Results, E. coli (fold increase in extracellular AK activity)", "result": 0.6}]}, {"molecule": "Cc1n[nH]c(=O)[nH]c1=O", "note": "[Azathymine, 6]", "values": [{"measurement": "AK-based Prestwick Library Screening Results: E. faecium (increase in extracellular AK activity)", "setting": "[1]; planktonic E. faecium, 384-well, cutoff for positive-scoring molecules 3-fold increase", "result": 0.9}, {"measurement": "AK-based Prestwick Library Screening Results: S. aureus (increase in extracellular AK activity)", "setting": "[2]; planktonic S. aureus, 384-well, cutoff for positive-scoring molecules 3-fold increase", "result": 0.4}, {"measurement": "AK-based Prestwick Library Screening Results: K. pneumoniae (increase in extracellular AK activity)", "setting": "[3]; planktonic K. pneumoniae, 384-well, cutoff for positive-scoring molecules 3-fold increase", "result": 0.5}, {"measurement": "AK-based Prestwick Library Screening Results: A. baumannii (increase in extracellular AK activity)", "setting": "[4]; planktonic A. baumannii, 384-well, cutoff for positive-scoring molecules 3-fold increase", "result": 0.5}, {"measurement": "AK-based Prestwick Library Screening Results: P. aeruginosa (increase in extracellular AK activity)", "setting": "[5]; planktonic P. aeruginosa, 384-well, cutoff for positive-scoring molecules 3-fold increase", "result": 0.6}, {"measurement": "AK-based Prestwick Library Screening Results: E. cloacae (increase in extracellular AK activity)", "setting": "[6]; planktonic E. cloacae, 384-well, cutoff for positive-scoring molecules 3-fold increase", "result": 0.6}, {"measurement": "AK-based Prestwick Library Screening Results: E. coli (increase in extracellular AK activity)", "setting": "[7]; planktonic E. coli, 384-well, […]", "result": 0.6}]}, {"molecule": "CCCc1ncc(C[n+]2ccccc2C)c(N)n1", "note": "[Amprolium hydrochloride]", "values": [{"measurement": "fold induction at 50 µM", "setting": "[1]; 384-well format, cutoff for positive-scoring molecules 3-fold increase, read-out: AK-based Prestwick Library Screening Results, E. faecium (increase in extracellular AK activity)", "result": 0.9}, {"measurement": "fold induction at 50 µM", "setting": "[2]; 384-well format, cutoff for positive-scoring molecules 3-fold increase, read-out: AK-based Prestwick Library Screening Results, S. aureus (increase in extracellular AK activity)", "result": 0.5}, {"measurement": "fold induction at 50 µM", "setting": "[3]; 384-well format, cutoff for positive-scoring molecules 3-fold increase, read-out: AK-based Prestwick Library Screening Results, K. pneumoniae (increase in extracellular AK activity)", "result": 0.6}, {"measurement": "fold induction at 50 µM", "setting": "[4]; 384-well format, cutoff for positive-scoring molecules 3-fold increase, read-out: AK-based Prestwick Library Screening Results, A. baumannii (increase in extracellular AK activity)", "result": 0.5}, {"measurement": "fold induction at 50 µM", "setting": "[5]; 384-well format, cutoff for positive-scoring molecules 3-fold increase, read-out: AK-based Prestwick Library Screening Results, P. aeruginosa (increase in extracellular AK activity)", "result": 0.4}, {"measurement": "fold induction at 50 µM", "setting": "[6]; 384-well format, cutoff for positive-scoring molecules 3-fold increase, read-out: AK-based Prestwick Library Screening Results, E. cloacae (increase in extracellular AK activity)", "result": 0.4}, {"measurement": "fold induction at 50 µM", "setting": "[7]; 384-well format, cutoff for positive-scoring molecules 3-fold increase, read-out: AK-based Prestwick Library Screening Results, E. coli (increase in extracellular AK activity)", "result": 0.5}]}, {"molecule": "O=c1c(O)c(-c2cc(O)c(O)c(O)c2)oc2cc(O)cc(O)c12", "note": "[Myricetin]", "values": [{"measurement": "fold induction at 50 µM", "setting": "[1]; planktonic, cutoff for positive 3-fold increase, read-out: AK-based Prestwick Library Screening Results, E. faecium (fold increase in extracellular AK activity)", "result": 0.8}, {"measurement": "fold induction at 50 µM", "setting": "[2]; planktonic, cutoff for positive 3-fold increase, read-out: AK-based Prestwick Library Screening Results, S. aureus (fold increase in extracellular AK activity)", "result": 0.5}, {"measurement": "fold induction at 50 µM", "setting": "[3]; planktonic, cutoff for positive 3-fold increase, read-out: AK-based Prestwick Library Screening Results, K. pneumoniae (fold increase in extracellular AK activity)", "result": 0.9}, {"measurement": "fold induction at 50 µM", "setting": "[4]; planktonic, cutoff for positive 3-fold increase, read-out: AK-based Prestwick Library Screening Results, A. baumannii (fold increase in extracellular AK activity)", "result": 0.8}, {"measurement": "fold induction at 50 µM", "setting": "[5]; planktonic, cutoff for positive 3-fold increase, read-out: AK-based Prestwick Library Screening Results, P. aeruginosa (fold increase in extracellular AK activity)", "result": 0.9}, {"measurement": "fold induction at 50 µM", "setting": "[6]; planktonic, cutoff for positive 3-fold increase, read-out: AK-based Prestwick Library Screening Results, E. cloacae (fold increase in extracellular AK activity)", "result": 1.2}, {"measurement": "fold induction at 50 µM", "setting": "[7]; planktonic, cutoff for positive 3-fold increase, read-out: AK-based Prestwick Library Screening Results, E. coli (fold increase in extracellular AK activity)", "result": 0.9}]}, {"molecule": "CCN(CC)CCNC(=O)c1cc(Cl)c(N)cc1OC", "note": "[Metoclopramide monohydrochloride]", "values": [{"measurement": "fold induction at 50 µM", "setting": "[1]; planktonic E. faecium, 384-well, cutoff for positive-scoring molecules 3-fold increase, read-out: AK-based Prestwick Library Screening Results: E. faecium (increase in extracellular AK activity)", "result": 1.2}, {"measurement": "fold induction at 50 µM", "setting": "[2]; planktonic S. aureus, 384-well, cutoff for positive-scoring molecules 3-fold increase, read-out: AK-based Prestwick Library Screening Results: S. aureus (increase in extracellular AK activity)", "result": 0.9}, {"measurement": "fold induction at 50 µM", "setting": "[3]; planktonic K. pneumoniae, 384-well, cutoff for positive-scoring molecules 3-fold increase, read-out: AK-based Prestwick Library Screening Results: K. pneumoniae (increase in extracellular AK activity)", "result": 0.9}, {"measurement": "fold induction at 50 µM", "setting": "[4]; planktonic A. baumannii, 384-well, cutoff for positive-scoring molecules 3-fold increase, read-out: AK-based Prestwick Library Screening Results: A. baumannii (increase in extracellular AK activity)", "result": 1.2}, {"measurement": "fold induction at 50 µM", "setting": "[5]; planktonic P. aeruginosa, 384-well, cutoff for positive-scoring molecules 3-fold increase, read-out: AK-based Prestwick Library Screening Results: P. aeruginosa (increase in extracellular AK activity)", "result": 1.1}, {"measurement": "fold induction at 50 µM", "setting": "[6]; planktonic E. cloacae, 384-well, cutoff for positive-scoring molecules 3-fold increase, read-out: AK-based Prestwick Library Screening Results: E. cloacae (increase in extracellular AK activity)", "result": 1.6}, {"measurement": "fold induction at 50 µM", "setting": "[7]; planktonic E. coli, 384-well, cutoff for positive-scoring molecules 3-fold increase, read-out: AK-based Prestwick Library Screening Results: E. coli (increase in extracellular AK activity)", "result": 1.3}]}, {"molecule": "CC(C)(C)NCC(O)c1cc(Cl)c(N)c(Cl)c1", "note": "(stereo not shown) [Clenbuterol hydrochloride]", "values": [{"measurement": "fold induction at 50 µM", "setting": "[1]; planktonic E. faecium, […], read-out: AK-based Prestwick Library Screening Results, E. faecium (increase in extracellular AK activity)", "result": 0.9}, {"measurement": "fold induction at 50 µM", "setting": "[2]; planktonic S. aureus, […], read-out: AK-based Prestwick Library Screening Results, S. aureus (increase in extracellular AK activity)", "result": 0.7}, {"measurement": "fold induction at 50 µM", "setting": "[3]; planktonic K. pneumoniae, […], read-out: AK-based Prestwick Library Screening Results, K. pneumoniae (increase in extracellular AK activity)", "result": 0.7}, {"measurement": "fold induction at 50 µM", "setting": "[4]; planktonic A. baumannii, […], read-out: AK-based Prestwick Library Screening Results, A. baumannii (increase in extracellular AK activity)", "result": 0.8}, {"measurement": "fold induction at 50 µM", "setting": "[5]; planktonic P. aeruginosa, […], read-out: AK-based Prestwick Library Screening Results, P. aeruginosa (increase in extracellular AK activity)", "result": 0.8}, {"measurement": "fold induction at 50 µM", "setting": "[6]; planktonic E. cloacae, […], read-out: AK-based Prestwick Library Screening Results, E. cloacae (increase in extracellular AK activity)", "result": 0.9}, {"measurement": "fold induction at 50 µM", "setting": "[7]; planktonic E. coli, […], read-out: AK-based Prestwick Library Screening Results, E. coli (increase in extracellular AK activity)", "result": 0.8}]}, {"molecule": "CC(C)NCC(O)COc1cccc2ccccc12", "note": "(stereo not shown) [Propranolol hydrochloride]", "values": [{"measurement": "fold induction at 50 µM", "setting": "[1]; cutoff for positive-scoring molecules 3-fold increase, read-out: AK-based Prestwick Library Screening Results, E. faecium (fold increase in extracellular AK activity)", "result": 1.1}, {"measurement": "fold induction at 50 µM", "setting": "[2]; cutoff for positive-scoring molecules 3-fold increase, read-out: AK-based Prestwick Library Screening Results, S. aureus (fold increase in extracellular AK activity)", "result": 1.4}, {"measurement": "fold induction at 50 µM", "setting": "[3]; cutoff for positive-scoring molecules 3-fold increase, read-out: AK-based Prestwick Library Screening Results, K. pneumoniae (fold increase in extracellular AK activity)", "result": 1.1}, {"measurement": "fold induction at 50 µM", "setting": "[4]; cutoff for positive-scoring molecules 3-fold increase, read-out: AK-based Prestwick Library Screening Results, A. baumannii (fold increase in extracellular AK activity)", "result": 1.2}, {"measurement": "fold induction at 50 µM", "setting": "[5]; cutoff for positive-scoring molecules 3-fold increase, read-out: AK-based Prestwick Library Screening Results, P. aeruginosa (fold increase in extracellular AK activity)", "result": 1.2}, {"measurement": "fold induction at 50 µM", "setting": "[6]; cutoff for positive-scoring molecules 3-fold increase, read-out: AK-based Prestwick Library Screening Results, E. cloacae (fold increase in extracellular AK activity)", "result": 1.4}, {"measurement": "fold induction at 50 µM", "setting": "[7]; cutoff for positive-scoring molecules 3-fold increase, read-out: AK-based Prestwick Library Screening Results, E. coli (fold increase in extracellular AK activity)", "result": 1.2}]}]}
